Experimental data published in ChEMBL document CHEMBL1201862, “PubChem BioAssay data set” (2004).
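Exposure lasted 48 hours, with cells grown in 96-well plates and compounds tested at five concentrations. GI50: concentration for 50% inhibition of growth.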 Active and inactive are the calls of the source. Rule as the data show it: active = GI50 up to about 1.1 µM and inactive = higher. Non-standard residues stand in square brackets, D forms with d. Residues, ends and D or L forms follow the SMILES beside them. ξ: configuration not given here. *: point of attachment. ξNMeF = CNC(Cc1ccccc1)C(=O)O; NMeV = CN[C@H](C(=O)O)C(C)C; Boc = CC(C)(C)OC(=O)*; OBn = c1ccc(CO*)cc1

What was measured:
Assay in all cases: inhibition of tumour cell growth, NCI panel, 48 h
HOP-62 = system: HOP-62
SF-539 = system: SF-539
HCT-116 = system: HCT-116
A498 = system: A498
SNB-75 = system: SNB-75
MOLT-4 = system: MOLT-4
RPMI-8226 = system: RPMI-8226
SNB-19 = system: SNB-19
ACHN = system: ACHN
SF-268 = system: SF-268
HL-60 = system: HL-60
HCC 2998 = system: HCC 2998
786-0 = system: 786-0
OVCAR-5 = system: OVCAR-5
SW-620 = system: SW-620
EKVX = system: EKVX
OVCAR-3 = system: OVCAR-3
COLO 205 = system: COLO 205

Measured: GI50

CCCCc1c2c(nc3c1CCCC3O)/C(=C/c1ccccc1)CCC2 (stereo not given)
inactive: HOP-62 36.5 µM | SF-539 28.1 µM | HCT-116 36.6 µM | A498 54.1 µM | SNB-75 35.3 µM | MOLT-4 11.6 µM | RPMI-8226 16.8 µM | SNB-19 43.1 µM | ACHN 34.8 µM | SF-268 31.3 µM | HL-60 17.3 µM | HCC 2998 9.84 µM | 786-0 22.3 µM | OVCAR-5 32.8 µM | SW-620 26.2 µM | EKVX 29.6 µM | OVCAR-3 18.7 µM | COLO 205 17.9 µM

COC(=O)C(=O)C(C(=O)C(=O)Nc1ccc(Cl)cc1C)c1nc2ccc(C(=O)c3ccccc3)cc2nc1O (stereo not given)
inactive: HOP-62 > 100 µM | SF-539 58.5 µM | HCT-116 > 100 µM | A498 21.6 µM | SNB-75 31.5 µM | MOLT-4 51.1 µM | RPMI-8226 > 100 µM | SNB-19 > 100 µM | ACHN 76.9 µM | SF-268 > 100 µM | HL-60 96.6 µM | HCC 2998 98.9 µM | 786-0 > 100 µM | OVCAR-5 83 µM | SW-620 > 100 µM | EKVX > 100 µM | OVCAR-3 > 100 µM | COLO 205 > 100 µM

Cc1ccc(S(=O)(=O)NNC(=O)c2sc(-c3nc(C)c(C(=O)NNS(=O)(=O)c4ccc(C)cc4)s3)nc2C)cc1
inactive: HOP-62 > 100 µM | SF-539 > 100 µM | HCT-116 84.5 µM | A498 > 100 µM | SNB-75 58.3 µM | MOLT-4 42.4 µM | RPMI-8226 45.3 µM | SNB-19 > 100 µM | ACHN 97.9 µM | SF-268 > 100 µM | HL-60 48.5 µM | HCC 2998 > 100 µM | 786-0 69.7 µM | OVCAR-5 > 100 µM | SW-620 > 100 µM | EKVX > 100 µM | OVCAR-3 > 100 µM | COLO 205 > 100 µM

COC(=O)[C@]1(C)C(OC)=CC(=O)C2C1[C@H]1CCC[C@@H]21 (stereo not given in full)
inactive: HOP-62 > 100 µM | SF-539 > 100 µM | HCT-116 > 100 µM | A498 > 100 µM | SNB-75 > 100 µM | MOLT-4 > 100 µM | RPMI-8226 > 100 µM | SNB-19 > 100 µM | ACHN > 100 µM | SF-268 > 100 µM | HL-60 > 100 µM | HCC 2998 > 100 µM | 786-0 > 100 µM | OVCAR-5 > 100 µM | EKVX > 100 µM | OVCAR-3 > 100 µM | COLO 205 > 100 µM

Cc1nc2nn(Cc3ccccc3)cc2c(=O)o1
inactive: HOP-62 > 100 µM | SF-539 > 100 µM | HCT-116 > 100 µM | A498 > 100 µM | SNB-75 > 100 µM | MOLT-4 > 100 µM | RPMI-8226 > 100 µM | SNB-19 > 100 µM | ACHN > 100 µM | SF-268 > 100 µM | HL-60 > 100 µM | HCC 2998 > 100 µM | 786-0 > 100 µM | OVCAR-5 > 100 µM | SW-620 > 100 µM | EKVX > 100 µM | OVCAR-3 > 100 µM | COLO 205 > 100 µM

CC1c2c(Cl)nc3ccccc3c2Oc2c1c(Cl)nc1ccccc21
inactive: HOP-62 > 100 µM | SF-539 > 100 µM | HCT-116 74.6 µM | A498 > 100 µM | SNB-75 56 µM | MOLT-4 31.2 µM | RPMI-8226 32.8 µM | SNB-19 > 100 µM | ACHN 51.5 µM | SF-268 > 100 µM | HL-60 29.6 µM | HCC 2998 > 100 µM | 786-0 49.1 µM | OVCAR-5 > 100 µM | SW-620 99.5 µM | EKVX 37.6 µM | OVCAR-3 81.8 µM | COLO 205 > 100 µM

CC(C)(C)NNC(=O)/C(=C/c1ccc(Oc2ccc(Cl)c(Cl)c2)cc1)NC(=O)c1ccccc1
inactive: HOP-62 > 100 µM | SF-539 > 100 µM | HCT-116 > 100 µM | A498 > 100 µM | SNB-75 > 100 µM | MOLT-4 65 µM | RPMI-8226 22.1 µM | SNB-19 > 100 µM | ACHN > 100 µM | SF-268 > 100 µM | HL-60 40.5 µM | HCC 2998 > 100 µM | 786-0 59.6 µM | OVCAR-5 > 100 µM | EKVX > 100 µM | OVCAR-3 > 100 µM | COLO 205 16.2 µM

O=C(N/N=C/c1ccccc1O)N/N=C/c1ccccc1O
inactive: HOP-62 > 100 µM | SF-539 > 100 µM | HCT-116 > 100 µM | A498 > 100 µM | SNB-75 > 100 µM | MOLT-4 > 100 µM | RPMI-8226 > 100 µM | SNB-19 > 100 µM | ACHN > 100 µM | SF-268 > 100 µM | HL-60 > 100 µM | HCC 2998 > 100 µM | 786-0 > 100 µM | OVCAR-5 > 100 µM | SW-620 > 100 µM | EKVX > 100 µM | OVCAR-3 > 100 µM | COLO 205 > 100 µM

OC12c3ccccc3C3CCC4(OCCO4)C3C1c1ccccc12 (stereo not given)
inactive: HOP-62 > 100 µM | SF-539 > 100 µM | HCT-116 > 100 µM | A498 52.1 µM | SNB-75 39.6 µM | MOLT-4 48.6 µM | RPMI-8226 64 µM | SNB-19 > 100 µM | ACHN > 100 µM | SF-268 > 100 µM | HL-60 > 100 µM | HCC 2998 > 100 µM | 786-0 > 100 µM | OVCAR-5 > 100 µM | SW-620 > 100 µM | EKVX > 100 µM | OVCAR-3 > 100 µM | COLO 205 > 100 µM

O=C(NO)c1ccc(O)c(O)c1
inactive: HOP-62 > 100 µM | SF-539 > 100 µM | HCT-116 > 100 µM | A498 > 100 µM | SNB-75 > 100 µM | MOLT-4 93.3 µM | RPMI-8226 32.4 µM | SNB-19 > 100 µM | ACHN > 100 µM | SF-268 > 100 µM | HL-60 9.77 µM | HCC 2998 > 100 µM | 786-0 > 100 µM | OVCAR-5 94.6 µM | SW-620 47.6 µM | EKVX > 100 µM | OVCAR-3 > 100 µM | COLO 205 > 100 µM

CC(C)[C@@H](C(=O)N(C)[C@H](C(=O)N1CCC[C@H]1C(=O)OCc1ccccc1)C(C)C)N(C)C(=O)C(Cc1ccccc1)N(C)C(=O)[C@H](NC(=O)OC(C)(C)C)C(C)C (stereo not given in full) (Boc-[dV][ξNMeF][NMeV][NMeV]P-OBn)
inactive: HOP-62 > 31.6 µM | SF-539 > 31.6 µM | HCT-116 > 31.6 µM | A498 > 31.6 µM | SNB-75 14 µM | MOLT-4 10.7 µM | RPMI-8226 10.4 µM | SNB-19 > 31.6 µM | SF-268 > 31.6 µM | HL-60 19 µM | HCC 2998 > 10 µM | 786-0 > 46.8 µM | OVCAR-5 > 31.6 µM | SW-620 > 31.6 µM | EKVX > 31.6 µM | OVCAR-3 > 34.5 µM | COLO 205 > 82.6 µM
